In patent US20050267050A1, “Compositions and methods for treating mdma-induced toxicity” (YEDA RESEARCH AND DEVELOPMENT CO. LTD., priority 2002, published 2005):

Experiments:
Assay type in all cases: in vivo
MC2, MG2 and MG4 cDNAs = assay: Semi-quantitative RT-PCR of brain mRNA of MDMA-treated mice; conditions: FIG. 2B, MDMA 10 mg/kg i.p., 2 hr
mGAT4 [1] = assay: as above; conditions: for Increase of mGAT4 mRNA level: MDMA 10 mg/kg i.p., 2 hr, GAPDH for semi-quantitation; for Return of mGAT4 increase to control levels: within 2 days
MG2 cDNA = assay: DD-PCR analysis of brain mRNA of MDMA-treated mice; set-up: key: − (lowest); ++ (highest); conditions: MDMA one i.p. injection, 10 mg/kg, 2 hr; frontal cortex
Experimental: (§1) Young adult male C57BI/6J mice (2-3 months old) were injected intraperitoneally with 0.25 ml saline (control) or saline containing MDMA (10 mg/kg). Unless otherwise indicated, mice were sacrificed 2 hr after drug treatment and frontal cortex and/or midbrain were rapidly dissected in ice-cold saline. The dissected brain tissue was frozen on dry ice, 0.5 ml Tri Reagent was added, and samples were stored at −70° C. Serotonin transporter knockout mice (−/−) (Bengel et al., 1998) were used when indicated.
(§2) Frontal cortex or midbrain samples frozen with Tri Reagent were crushed, 1 ml Tri Reagent was added and total RNA was isolated according to the manufacture's protocol. RNA samples were treated with RNase-free DNase I for 30 minutes at 37° C. and RNA quality and yield was verified on 1.2% formaldehyde agarose gel. First-strand cDNA was prepared from 0.5 μg total RNA as template and 0.8 μM (dT)12GC, (dT)12CC or oligo(dT)18 as a primer, using Superscript amplification kit. DD-PCR (differential display-PCR) was carried out in 20 μl total volume, and included 0.8 μM of one of the 3′ primers (dT)12GC, (dT)12CC or (dT)12, the arbitrary 5′ primer 5′-GGACAGCTTC-3′, 2.5 μM dNTP, 2.5 mM MgCl2, 2 μCi α-^33P-[dATP] (3000 Ci/mM), cDNA prepared from 50 ng total RNA, and 2.5 units of Taq DNA polymerase. The DD-PCR reaction was started with 3 minutes incubation at 94° C., followed with 40 cycles of 30 sec at 94° C., 2 minutes at 40° C. and 30 sec at 72° C., and finally 5 minutes at 72° C. Then, 10 μl of the reaction was mixed with 10 μl of 95% formamide containing 0.05% bromophenol blue and 0.05% xylene cyanol, and incubated for 5 minutes at 75° C. An aliquot (6 μl) was analysed on a denatured DNA sequencing gel. The gel was dried and exposed to Phosphoimage Analyzer (Fujix) or to X-ray film. The DNA bands expressed differentially upon MDMA-treatment were identified, cut from the gel, socked in H2O, boiled for 15 minutes and centrifuged (10000 g). Ten μl of the supernatant was used as template to re-amplify the band of interest, with the same primers and PCR conditions described for DD-PCR except that 25 μM dNTP and no isotopes were used. Ten μl of the PCR reaction was run on a 2% agarose gel. The band of the predicted size was excised, purified with DNA extraction kit, and cloned into pGEM-T Easy Vector. Plasmid DNA from successful clones was purified with Plasmid Mini Kit and subjected for sequencing (Biological Services, Weizmann Institute of Science). Sequence data were compared with GeneBank (NCBI).
(§3) Total RNA from frontal cortex (“FC”) and midbrain (“MB”) of saline—(denoted as “−”) and MDMA-treated (denoted as “+”) mice (one i.p. injection, 10 mg/kg, 2 hr) were used for DD-PCR analysis. The random primers used were dT12CC for MC1, dT12GG for MG3, MG4, MG5 and MG6, and dT18 for G1. Different but characteristic cDNA products were obtained with each one of the three primers. […] Some of the altered expression levels are common for both brain regions while others are specific either to the frontal cortex or the midbrain.

MG3 cDNA = assay: DD-PCR analysis of brain mRNA of MDMA-treated mice; set-up: key: − (lowest); ++ (highest); conditions: MDMA one i.p. injection, 10 mg/kg, 2 hr
Experimental: as §1, §2, §3

MC2 cDNA = assay: DD-PCR analysis of brain mRNA of MDMA-treated mice; set-up: key: − (lowest); ++ (highest); conditions: MDMA one i.p. injection, 10 mg/kg, 2 hr
Experimental: as §1, §2, §3

MG5 cDNA = assay: DD-PCR analysis of brain mRNA of MDMA-treated mice; set-up: key: − (lowest); ++ (highest); conditions: MDMA one i.p. injection, 10 mg/kg, 2 hr
Experimental: as §1, §2, §3

mGAT1 [2] = assay: Semi-quantitative RT-PCR of brain mRNA of MDMA-treated mice; conditions: for Increase of mGAT1 expression, estimated by scanning: MDMA 10 mg/kg i.p., 2 hr, GAPDH as standard
MC1 cDNA = assay: DD-PCR analysis of brain mRNA of MDMA-treated mice; set-up: key to Intensity of MC1 cDNA band, MDMA, F. Cortex / Intensity of MC1 cDNA band, MDMA, MidBrain: − (lowest); ++ (highest); conditions: 2 hr
Experimental: as §1
as §2, with “Ten μl of the supernatant was used as template to re-amplify the band of interest, with the same primers and PCR conditions described for DD-PCR except that 25 μM dNTP and no isotopes were used. Ten μl of the PCR reaction was run on a 2% agarose gel. The band of the predicted size was excised, purified with DNA extraction kit, and cloned into pGEM-T Easy Vector. Plasmid DNA from successful clones was purified with Plasmid Mini Kit and subjected for sequencing (Biological Services, Weizmann Institute of Science). Sequence data were compared with GeneBank (NCBI).” left out

mGAT1 protein = assay: Western immunoblotting with anti-GAT1 antibodies, MDMA-treated mice; conditions: for GAT1 protein, fold of control: SERT knockout (−/−) mice; for Increase of GAT1 immunoreactivity: wild type mice
Experimental: as §1
Protein was isolated with Tri Reagent according to the protocol provided by the manufacturer. After precipitation with isopropanol, the protein pellet was washed three times with 0.3M guanidine hydrochloride and 95% ethanol, followed by washing with ethanol, dried, and dissolved in 10 M urea containing 50 mM dithiothreitol (DTT). Samples were kept at room temperature for 1 hr before boiling for 3 minutes, sonicated on ice for 2 minutes, and stored at −20° C. Protein concentration was determined with the micro BCA protein assay reagent kit. Samples of 30 μg protein run on SDS-PAGE (5% stacking gel and 8% or 10% separating gel), with Kaleidoscope pre-stained standard proteins as molecular weight markers. The proteins were transferred to nitrocellulose membranes preincubated for 2 hr in Tris-buffered saline (TBS) with 10% non-fat dry milk and 0.1% Tween 20, and incubated overnight at 4° C. or 2 hr at room temperature with anti-GAT1 antibodies (1:500 in TBS containing 5% non-fat dry milk). Membranes were then washed three times with TBS containing 0.1% Tween 20, incubated for 2 hr at room temperature with the second antibody, horseradish peroxidase coupled to F(ab)2 anti-rabbit IgG, washed four times with the same buffer, and subjected to ECL Western immublotting detection reagents.
It was essential to determine whether the MDMA-induced increase in mGAT1 mRNA was correlated with a similar change in protein level. […] These anti-GAT1 antibodies were also useful to verify MDMA effect on the expression of mGAT1 in the SERT knockout mice (−/−) that behaviorally are nonresponsive to MDMA (Bengel et al., 1998).

G1 cDNA (mGAT1) = assay: DD-PCR analysis of brain mRNA of MDMA-treated mice; set-up: key to Intensity of G1 cDNA band, MDMA, F. Cortex: − (lowest); ++ (highest); conditions: 2 hr
Experimental: as §1
Frontal cortex or midbrain samples frozen with Tri Reagent were crushed, 1 ml Tri Reagent was added and total RNA was isolated according to the manufacture's protocol. RNA samples were treated with RNase-free DNase I for 30 minutes at 37° C. and RNA quality and yield was verified on 1.2% formaldehyde agarose gel. First-strand cDNA was prepared from 0.5 μg total RNA as template and 0.8 μM (dT)12GC, (dT)12CC or oligo(dT)18 as a primer, using Superscript amplification kit. DD-PCR (differential display-PCR) was carried out in 20 μl total volume, and included 0.8 μM of one of the 3′ primers (dT)12GC, (dT)12CC or (dT)12, the arbitrary 5′ primer 5′-GGACAGCTTC-3′, 2.5 μM dNTP, 2.5 mM MgCl2, 2 μCi α-^33P-[dATP] (3000 Ci/mM), cDNA prepared from 50 ng total RNA, and 2.5 units of Taq DNA polymerase. […] An aliquot (6 μl) was analysed on a denatured DNA sequencing gel. […]

mGAT4 [3] = assay: Real-time PCR analysis of midbrain RNA of MDMA-treated mice
Experimental: as §1
(§4) Real-time PCR analysis was performed with the LightCycler System (Roche Molecular Biochemicals) and LightCycler-FastStart DNA Master SYBR Green I, according to the manufacturer instructions. Reactions (in 20 μl) included template cDNA prepared from 0.1-0.5 μg total RNA, 3 mM MgCl2 and 0.25-0.5 μM primers. Buffer, dNTP mixture (with dUTP instead of dTTP), Taq DNA polymerase, and SYBR Green I dye were included in the ‘Hot start’ reaction as recommended. Typical protocol was as follows. Ten minutes at 95° C. followed by 40 cycles of amplification, starting with 15 sec at 95° C., 10 sec at 60° C. and 10 sec at 72° C. The extension period varied with each specific primer, depending on the product length (about 1 sec/25 bp).
(§5) For quantification analysis, 3-5 standards of PCR products with known concentration were amplified under the same cycling conditions, and GAPDH was amplified as an internal control to correct for variations in the amount of cDNA. Real-time PCR products of each assay were also subjected to agarose gel electrophoresis, to further confirm amplification specificity. Quantitation was assessed with LightCycler Data Analysis (LCDA) software by the Fit Points method. Melting curve of the cDNA product was determined by incubation at 95° C. for 0 sec, 15 sec at 65° C. and 0 sec at 95° C., followed by a cooling of 30 sec at 40° C.
(§6) RNA extracted from the midbrain of saline- or MDMA-treated mice was analyzed with the LightCycler System, using specific primers for mGAT1 and mGAT4, along with GAPDH as a control (see Materials and Methods). […] (FIG. 4F).

GAPDH = assay: as above
Experimental: as §1, §4, §5, §6

mGAT1 [4] = assay: as above
Experimental: as §1, §4, §5, §6

mGAT2 = assay: Semi-quantitative RT-PCR of brain mRNA of MDMA-treated mice
[5] = MDMA one i.p. injection, 10 mg/kg, frontal cortex
[6] = both frontal cortex and midbrain, MDMA 10 mg/kg i.p.

CNC(C)Cc1ccc2c(c1)OCO2 (stereo not shown) [MDMA, 3,4-Methylenedioxymethamphetamine]
MDMA-induced changes of MC2, MG2 and MG4 expression (MC2, MG2 and MG4 cDNAs): 1.5-2.2 fold
Increase of mGAT4 mRNA level (mGAT4 [1]; frontal cortex): 4.6 fold
Return of mGAT4 increase to control levels (mGAT4 [1]; frontal cortex): partially
Increase of mGAT4 mRNA level (mGAT4 [1]; midbrain): 1.7 fold
Return of mGAT4 increase to control levels (mGAT4 [1]; midbrain): completely
Intensity of MG2 cDNA band, MDMA, F. Cortex (MG2 cDNA): ++
Intensity of MG3 cDNA band, MDMA, F. Cortex (MG3 cDNA; frontal cortex): −
Intensity of MG3 cDNA band, MDMA, MidBrain (MG3 cDNA; midbrain): −
Intensity of MC2 cDNA band, MDMA, MidBrain (MC2 cDNA): ++
Intensity of MG5 cDNA band, MDMA, F. Cortex (MG5 cDNA; frontal cortex): −
Intensity of MG5 cDNA band, MDMA, MidBrain (MG5 cDNA; midbrain): −
Increase of mGAT1 expression, estimated by scanning (mGAT1 [2]; frontal cortex): 1.58 fold
Increase of mGAT1 expression, estimated by scanning (mGAT1 [2]; midbrain): 1.74 fold
Time for which MDMA effect on mGAT1 expression sustained (mGAT1 [2]; time course 2 hours-7 days after treatment): 7 days
Intensity of MC1 cDNA band, MDMA, F. Cortex (MC1 cDNA; [5]): −
Intensity of MC1 cDNA band, MDMA, MidBrain (MC1 cDNA; MDMA one i.p. injection, 10 mg/kg, midbrain): −
Change of cDNA band MC1 in MDMA-treated mice (FIG. 1B) (MC1 cDNA; [6]): profound decrease
GAT1 protein, fold of control (mGAT1 protein; frontal cortex): 1.3 fold
GAT1 protein, fold of control (mGAT1 protein; midbrain): 1.0 fold
Induction of GAT1 protein upon MDMA treatment (mGAT1 protein; SERT −/− mice): no significant induction
Increase of GAT1 immunoreactivity (mGAT1 protein; frontal cortex): 2.1 fold
Increase of GAT1 immunoreactivity (mGAT1 protein; midbrain): 2.4 fold
Intensity of G1 cDNA band, MDMA, F. Cortex (G1 cDNA (mGAT1); [5]): ++
Change of intensity of cDNA G1 in MDMA-treated mice (FIG. 1C) (G1 cDNA (mGAT1); [6]): increased
Increase in mGAT4/GAPDH ratio compared with controls (mGAT4 [3]): 1.52 fold
Increase of GAPDH level (GAPDH): 19%
GAPDH level after MDMA treatment (real-time PCR amount) (GAPDH; control 514×10^−5 pmole): 0.00612 pmol
Net increase in mGAT1 levels (corrected for GAPDH) (mGAT1 [4]): 5.2 fold
mGAT1 expression after MDMA treatment (real-time PCR amount) (mGAT1 [4]; control 3.43×10^−5 pmole): 0.000211 pmol
Effect on mGAT2 expression (mGAT2; MDMA 10 mg/kg i.p., 2 hr, frontal cortex and midbrain): insignificant effect
mGAT2 expression in time course (mGAT2; from 2 hours to 7 days after treatment): did not change
